Results reported in patent US20260070917A1, “CYCLIN DEPENDENT KINASE DEGRADERS AND METHODS OF USE THEREOF” (Differentiated Therapeutics Inc, priority 2023, published 2026).
Where two headings read alike, the source gives them in different places.

Assays:
Assay type in all cases: cell-based
CDK2 = biological target: T1, CDK2 (Homo sapiens, UniProt P24941); assay: HiBit Assay Protocol for CDK2 (HIBIT protein quantification, degradation); conditions: HEK293-CDK2-Hibit cells, compound treatment for 6 hours; for DC50: ABS DC50
T1 construct: host or cells: HEK293-CDK2-Hibit
Procedure, shortened: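 HEK293 cells expressing HiBiT-tagged CDK2 were seeded overnight, then treated 6 h with a 3-fold, 10-point compound dilution series. CDK2 levels were read as luminescence after lytic HiBiT/LgBiT detection, normalised to DMSO-only and medium-only controls, and DC50 derived by curve fitting.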

CCNE1 [1] = biological target: T2, CCNE1 (Homo sapiens, UniProt P24864); assay: HiBit Assay Protocol for CCNE1 (HIBIT protein quantification, degradation); conditions: HEK293-CCNE1-Hibit cells, compound treatment for 6 hours
T2 construct: host or cells: HEK293-CCNE1-Hibit
Procedure, shortened: (§1)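 HEK293 cells expressing HiBiT-tagged CCNE1 were seeded overnight, then treated 6 h with a 3-fold, 10-point compound dilution series. HiBiT levels were read by lytic LgBiT luminescence and normalised to DMSO-only (high) and medium-only (low) controls. DC50 was derived by curve fitting.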

CCNE1 [2] = biological target: T3, CCNE1 (Homo sapiens, UniProt P24864+P24941); assay: as above; conditions: HEK293-CCNE1-Hibit cells, compound treatment for 6 hours, ABS DC50
T3 construct: host or cells: HEK293-CCNE1-Hibit
Procedure, shortened: as §1

CDK9 = biological target: T4, CDK9 (Homo sapiens, UniProt P50750); assay: HiBit Assay Protocol for CDK9 (HIBIT protein quantification, degradation); conditions: HEK293-CDK9-Hibit cells, compound treatment for 6 hours; for Dmax: read-out: CDK9 HIBIT Protein Quantification Maximum; for DC50: ABS DC50
T4 construct: host or cells: HEK293-CDK9-Hibit
Procedure, shortened: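 HEK293 cells carrying HiBiT-tagged CDK9 treated 6 h with compounds in a 3-fold, 10-point dilution series. CDK9 level read by lytic Nano-Glo HiBiT/LgBiT luminescence and normalized to 0.1% DMSO (high) and medium-only (low) controls. DC50 from curve fitting.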

T4 sequence (P50750 whole entry): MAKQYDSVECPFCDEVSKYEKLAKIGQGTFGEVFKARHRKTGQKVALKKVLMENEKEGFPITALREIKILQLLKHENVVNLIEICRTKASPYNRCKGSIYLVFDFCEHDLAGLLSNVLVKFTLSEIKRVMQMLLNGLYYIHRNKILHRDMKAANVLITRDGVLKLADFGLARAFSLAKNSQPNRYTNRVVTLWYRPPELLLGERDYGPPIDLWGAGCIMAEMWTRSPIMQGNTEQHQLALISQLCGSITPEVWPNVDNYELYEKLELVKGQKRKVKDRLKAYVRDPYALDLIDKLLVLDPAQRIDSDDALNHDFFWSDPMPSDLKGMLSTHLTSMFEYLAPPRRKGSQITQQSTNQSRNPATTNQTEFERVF
T2 sequence (P24864 whole entry): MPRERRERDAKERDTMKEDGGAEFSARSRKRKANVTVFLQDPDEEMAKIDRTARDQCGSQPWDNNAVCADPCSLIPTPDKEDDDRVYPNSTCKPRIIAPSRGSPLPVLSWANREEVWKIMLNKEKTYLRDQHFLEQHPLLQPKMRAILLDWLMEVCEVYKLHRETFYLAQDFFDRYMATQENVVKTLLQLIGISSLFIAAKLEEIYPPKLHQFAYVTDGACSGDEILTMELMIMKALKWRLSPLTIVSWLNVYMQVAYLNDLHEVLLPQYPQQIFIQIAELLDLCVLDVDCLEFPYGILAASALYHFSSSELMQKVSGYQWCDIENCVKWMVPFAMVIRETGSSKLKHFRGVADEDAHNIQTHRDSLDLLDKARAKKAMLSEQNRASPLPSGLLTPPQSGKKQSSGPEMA
T3 sequence (P24864 whole entry, one chain of several): as the sequence (P24864 whole entry) above

SMILES | CDK2 HIBIT Protein Quantification Maximum (CDK2) [%] | DC50 (CDK2) [nM] | CCNE1 HIBIT Protein Quantification Maximum (CCNE1 [1]) [%] | DC50 (CCNE1 [2]) [nM] | Dmax (CDK9; 6 h) [%] | DC50 (CDK9) [nM] | Dmax (CDK9) [%]
C[C@@H](c1cccc(S(=O)(=O)N2CCC(Nc3ncc4c(n3)N([C@@H]3CCC[C@@H](O)C3)C(=O)C43CC3)CC2)c1)N1CCC(c2ccc3c(N4CCC(=O)NC4=O)nn(C)c3c2)CC1 (single isomer, unassigned) [Compound 152] | 88 | 4.22 | 53 | 23.6 | 52 | 2170 | 
CC(c1cc(S(=O)(=O)N2CC[C@H](Nc3ncc4c(n3)N([C@@H]3CCC[C@@H](O)C3)C(=O)C43CC3)[C@H](F)C2)ccc1F)N1CCC(c2ccc3c(N4CCC(=O)NC4=O)nn(C)c3c2)CC1 (single isomer, unassigned) [Compound 200, 1-(6-{1-[(1R*)-1-{2-Fluoro-5-[(3R,4S)-3-fluoro-4-{7′-[(1R,3R)-3-hydroxycyclohexyl]-6′-oxospiro[cyclopropane-1,5′-pyrrolo[2,3-d]pyrimidin]-2′-ylamino}piperidin-1-ylsulfonyl]phenyl}ethyl]piperidin-4-yl}-1-methylindazol-3-yl)-1,3-diazinane-2,4-dione] | 89 | 3.81 | 61 | 9.88 | 13 |  | 
Cn1nc(N2CCC(=O)NC2=O)c2cccc(C3CCN(Cc4cccc(S(=O)(=O)N5CCC(Nc6ncc7c(n6)N([C@H]6CCC[C@H](O)C6)C(=O)C76CC6)CC5)c4)CC3)c21 (stereo in doubt) [Compound 146, 1-[7-(1-{[3-(4-{7′-[(1S,3S)-3-hydroxycyclohexyl]-6′-oxospiro[cyclopropane-1,5′-pyrrolo[2,3-d]pyrimidin]-2′-ylamino}piperidin-1-ylsulfonyl)phenyl]methyl}piperidin-4-yl)-1-methylindazol-3-yl]-1,3-diazinane-2,4-dione] | 76 | 30 | 82 | 36.2 |  |  | 4
C[C@H]1CCC[C@H]1N1C(=O)C2(CC2)c2cnc(NC3CCN(S(=O)(=O)N(C)CCCN4CCC(c5cccc6c5n(C)c(=O)n6C5CCC(=O)NC5=O)CC4)CC3)nc21 (stereo partly drawn) [Compound 13, N-(3-{4-[1-(2,6-Dioxopiperidin-3-yl)-3-methyl-2-oxo-1,3-benzodiazol-4-yl]piperidin-1-yl}propyl)-N-methyl-4-{7′-[(1R,2S)-2-methylcyclopentyl]-6′-oxospiro[cyclopropane-1,5′-pyrrolo[2,3-d]pyrimidin]-2′-ylamino}piperidine-1-sulfonamide] | 79 | 17.3 | 52.8 | 17.6 |  |  | 
CC1CCCC1N1C(=O)C2(CC2)c2cnc(NC3CCN(S(=O)(=O)N4CCC5(CCCN5C(=O)CCCCCc5cccc6c5n(C)c(=O)n6C5CCC(=O)NC5=O)C4)CC3)nc21 (centres unmarked) [Compound 36] | 46 |  | 59 | 515 | 49 |  | 
CN(CCCN1CCC(c2cccc3c2n(C)c(=O)n3C2CCC(=O)NC2=O)CC1)S(=O)(=O)c1ccc(Nc2ncc3c(n2)N([C@@H]2CCC[C@@H](O)C2)C(=O)C32CC2)cc1 (stereo partly drawn) [Compound 116, N-(3-(4-(1-(2,6-dioxopiperidin-3-yl)-3-methyl-2-oxo-2,3-dihydro-1H-benzo[d]imidazol-4-yl)piperidin-1-yl)propyl)-4-((7′-((1R,3R)-3-hydroxycyclohexyl)-6′-oxo-6′,7′-dihydrospiro[cyclopropane-1,5′-pyrrolo[2,3-d]pyrimidin]-2′-yl)amino)-N-methylbenzenesulfonamide] | 86 | 14 | 75 | 23.2 | 81 | 74.9 | 
CC1CCCC1N1C(=O)C2(CC2)c2cnc(Nc3ccc(S(=O)(=O)N(C)CCCN4CCC(c5cccc6c5n(C)c(=O)n6C5CCC(=O)NC5=O)CC4)cc3)nc21 (centres unmarked) [Compound 117, N-(3-(4-(1-(2,6-dioxopiperidin-3-yl)-3-methyl-2-oxo-2,3-dihydro-1H-benzo[d]imidazol-4-yl)piperidin-1-yl)propyl)-N-methyl-4-((7′-(2-methylcyclopentyl)-6′-oxo-6′,7′-dihydrospiro [cyclopropane-1,5′-pyrrolo[2,3-d]pyrimidin]-2′-yl)amino)benzenesulfonamide] | 78 | 10 | 64 | 7.43 | 65 | 21.8 | 
O=C1CCC(N2Cc3cc(CN4CC(Oc5cccc(S(=O)(=O)c6ccc(Nc7ncc8c(n7)N([C@@H]7CCC[C@@H](O)C7)C(=O)C87CC7)cc6)c5)C4)ccc3C2=O)C(=O)N1 (stereo partly drawn) [Compound 125, 3-[5-({3-[3-(4-{7′-[(1R,3R)-3-hydroxycyclohexyl]-6′-oxospiro[cyclopropane-1,5′-pyrrolo [2,3-d]pyrimidin]-2′-ylamino}benzenesulfonyl)phenoxy]azetidin-1-yl}methyl)-1-oxo-3H-isoindol-2-yl]piperidine-2,6-dione] | 54 | 4 | 81 | 2.35 |  |  | 13
O=C1CCC(N2Cc3cc(N4CCN(CC5CCN(c6cccc(S(=O)(=O)c7ccc(Nc8ncc9c(n8)N([C@@H]8CCC[C@@H](O)C8)C(=O)C98CC8)cc7)c6)CC5)CC4)ccc3C2=O)C(=O)N1 (stereo partly drawn) [Compound 126, 3-{5-[4-({1-[3-(4-{7′-[(1R,3R)-3-hydroxycyclohexyl]-6′-oxospiro [cyclopropane-1,5′-pyrrolo[2,3-d]pyrimidin]-2′-ylamino}benzenesulfonyl)phenyl]piperidin-4-yl}methyl)piperazin-1-yl]-1-oxo-3H-isoindol-2-yl}piperidine-2,6-dione] | 66 | 6 | 71 | 29.6 |  | 33.4 | 84
CN(CCCN1CCC(c2cccc3c2n(C)c(=O)n3C2CCC(=O)NC2=O)CC1)S(=O)(=O)N1CCC(Nc2ncc3c(n2)N([C@@H]2CCC[C@@H](O)C2)C(=O)C32CC2)CC1 (stereo partly drawn) [Compound 131, N-(3-{4-[1-(2,6-Dioxopiperidin-3-yl)-3-methyl-2-oxo-1,3-benzodiazol-4-yl]piperidin-1-yl}propyl)-4-{7′-[(1R,3R)-3-hydroxycyclohexyl]-6′-oxospiro[cyclopropane-1,5′-pyrrolo[2,3-d]pyrimidin]-2′-ylamino}-N-methylpiperidine-1-sulfonamide] | 83 | 21.9 | 63 | 19.9 | 56 | 69.2 | 
C[C@H](c1cccc(S(=O)(=O)N2CCC(Nc3ncc4c(n3)N([C@@H]3CCC[C@@H](O)C3)C(=O)C43CC3)CC2)c1)N1CCC(c2ccc3c(N4CCC(=O)NC4=O)nn(C)c3c2)CC1 [Compound 151, 1-(6-{1-[(1R)-1-[3-(4-{7′-[(1R,3R)-3-hydroxycyclohexyl]-6′-oxospiro[cyclopropane-1,5′-pyrrolo[2,3-d]pyrimidin]-2′-ylamino}piperidin-1-ylsulfonyl)phenyl]ethyl]piperidin-4-yl}-1-methylindazol-3-yl)-1,3-diazinane-2,4-dione] | 80 | 3.31 | 69 | 78.5 | 3 |  | 
C[C@@H](c1cccc(S(=O)(=O)N2CC[C@H](Nc3ncc4c(n3)N([C@@H]3CCC[C@@H](O)C3)C(=O)C43CC3)[C@H](F)C2)c1)N1CCN(c2ccc3c(N4CCC(=O)NC4=O)nn(C)c3c2)[C@@H](C)C1 [Compound 206] | 91 | 10.9 | 43 |  | 13 |  | 
C[C@H](c1cccc(S(=O)(=O)N2CC[C@H](Nc3ncc4c(n3)N([C@@H]3CCC[C@@H](O)C3)C(=O)C43CC3)[C@H](F)C2)c1)N1CCN(c2ccc3c(N4CCC(=O)NC4=O)nn(C)c3c2)[C@@H](C)C1 [Compound 207] | 90 | 3.5 | 38 |  | 23 |  | 
C[C@H](c1cccc(S(=O)(=O)N2CC[C@H](Nc3ncc4c(n3)N([C@@H]3CCC[C@@H](O)C3)C(=O)C43CC3)[C@H](F)C2)c1)N1CCN(c2ccc3c(N4CCC(=O)NC4=O)nn(C)c3c2)[C@H](C)C1 [Compound 208] | 91 | 4.62 | 45 |  | 14 |  | 
C[C@@H]1CN([C@@H](C)c2cccc(S(=O)(=O)N3CC[C@H](Nc4ncc5c(n4)N([C@@H]4CCC[C@@H](O)C4)C(=O)C54CC4)[C@H](F)C3)c2)CCN1c1ccc2c(N3CCC(=O)NC3=O)nn(C)c2c1 [Compound 209] | 91 | 12.7 | 43 |  | 16 |  | 
